Data reported in patent US11767330B2, “Citrate salt, pharmaceutical compositions, and methods of making and using the same” (Foghorn Therapeutics Inc., priority 2021, dated 2023).

Test: Forced degradation study of compound D1 (HPLC)
Type: physicochemical
Description: Sample stock solution was prepared by weighing 60.74 mg of compound D1 to a 100 mL volumetric flask, dissolving by ultrasonic in 50 mL of diluent 2, diluting to volume with diluent 2, and mixing well.
Unstressed sample solution was prepared by weighing 21.32 mg of compound D1 into a 100 mL volumetric flask, dissolving by ultrasonic in 50 mL of diluent 3, diluting to volume with diluent 3, and mixing well.
Sample solution for pH=4.0 solution stability was prepared as follows. 20.96 mg of compound D1 were weighed into a 100 mL volumetric flask, dissolved by ultrasonic in 50 mL of pH=4.0 50 mM sodium citrate buffer, diluted to volume with pH=4.0 50 mM sodium citrate buffer, and mixed well.
Sample solution for pH=5.0 solution stability was prepared as follows. 20.75 mg of compound D were weighed into a 100 mL volumetric flask, dissolved by ultrasonic in 50 mL of pH=5.0 50 mM sodium citrate buffer, diluted to volume with pH=5.0 50 mM sodium citrate buffer, and mixed well.
Sample solution for pH=7.0 solution stability was prepared as follows. 19.91 mg of compound D1 and 684.71 mg KH2PO4 were weighed into a 100 mL volumetric flask, dissolved by ultrasonic in 50 mL of diluent 1, transferred 29.1 mL of 0.1N NaOH into the same volumetric flask, diluted to volume with diluent 1, and mixed well.
Acid degradation (1N HCl at RT). 3 mL of the sample stock solution (see above) were transferred into an 8 mL vial, 3 mL of 2N HCl solution were added, and the resulting mixture was mixed well. Samples were prepared in quadruplicate and kept at RT. At the sampling point, 2 mL of the sample were transferred into an 8 mL vial and neutralized with 1 mL of 2N NaOH.
Samples were prepared in triplicate and kept at RT. […]
Oxidation degradation (3% H2O2 at RT). 3 mL of the sample stock solution (see above) were transferred into an 8 mL vial, 3 mL of 6% H2O2 solution were added, and the resulting mixture was mixed well. Samples were prepared in quadruplicate and kept at RT. At the sampling time point, 2 mL of the solution were transferred into an 8 mL vial, neutralized with 1 mL of diluent 3, and mixed well.
Photolysis degradation (solid). About 60 mg of compound D1 were placed onto a watch glass. Samples were prepared in triplicate and placed in a photo chamber (see Table 8). At the sampling time point, the sample was placed in a vial for analysis. About 20.0±2.0 mg of the sample into a 100 mL volumetric flask, dissolved by ultrasonic in 50 mL of diluent 3, diluted to volume with diluent 3, and mixed well.
Dark control sample: one sample was prepared as described above for this test, but the watch glass was covered with aluminum foil, and processed as described above.
Solid: about 60 mg of compound D1 were weighted into an 8 mL vial. Samples were prepared in triplicate and placed in an oven at 80° C. At the sampling time point, about 20.0±2.0 mg of the sample were weighed into a 100 mL volumetric flask, dissolved by ultrasonic in 50 mL of diluent 3, diluted to volume with diluent 3, and mixed well.
Solution: 3 mL of the sample stock solution (see above) were transferred into an 8 mL vial. Samples were prepared in triplicate and placed them in an oven at 80° C. At the sampling time point, 1 mL of the solution was transferred into an 8 mL vial, neutralized with 2 mL of diluent 3, and mixed well.
Humidity degradation (92% RH for solid). About 60 mg of compound D1 were transferred into a 20 mL vial (without cap). Samples were prepared in triplicate and placed in a desiccator at 92% RH. At the sampling time point, about 20.0±2.0 mg of the sample were transferred into a 100 mL volumetric flask, dissolved by ultrasonic in 50 mL of diluent 3, diluted to volume with diluent 3, and mixed well.
Solution Stability. Samples were prepared tested under the solution stability conditions noted in Table 8. The sampling time points were as noted in Table 8.

[1] = Acid Hydrolysis, 1N HCl RT, 0 h
[2] = Acid Hydrolysis, 1N HCl RT, 1 d
[3] = Acid Hydrolysis, 1N HCl RT, 2 d
[4] = Acid Hydrolysis, 1N HCl RT, 3 d
[5] = Base Hydrolysis, 1N NaOH RT, 0 h
[6] = Base Hydrolysis, 1N NaOH RT, 1 h
[7] = Photolysis, 1.10 W/m^2/25° C. for solid, 13 h
[8] = Photolysis, 1.10 W/m^2/25° C. for solid, 26 h
[9] = Photolysis, 1.10 W/m^2/25° C. for solid, 39 h
[10] = Solution Stability, pH = 4.0, 50 mM Sodium citrate buffer at RT, 0 h
[11] = Solution Stability, pH = 4.0, 50 mM Sodium citrate buffer at RT, 1 d
[12] = Solution Stability, pH = 4.0, 50 mM Sodium citrate buffer at RT, 3 d
[13] = Solution Stability, pH = 4.0, 50 mM Sodium citrate buffer at RT, 7 d
[14] = Solution Stability, pH = 5.0 50 mM Sodium citrate buffer at RT, 0 h
[15] = Solution Stability, pH = 5.0 50 mM Sodium citrate buffer at RT, 1 d
[16] = Solution Stability, pH = 5.0 50 mM Sodium citrate buffer at RT, 3 d
[17] = Solution Stability, pH = 5.0 50 mM Sodium citrate buffer at RT, 7 d
[18] = Solution Stability, pH = 7.0 Phosphate buffer at RT, 0 h
[19] = Solution Stability, pH = 7.0 Phosphate buffer at RT, 1 d
[20] = Solution Stability, pH = 7.0 Phosphate buffer at RT, 2 d

## COc1cc(-c2cn(C)c(=O)c3cnc(N4CCC4)cc23)cc(OC)c1CN1CCC(CN2CCC3(CC2)CN(c2ccc4c(c2)C(=O)N(C2CCC(=O)NC2=O)C4)C3)CC1 (racemic) [Compound D1, 3-[6-(7-[[1-([4-[6-(azetidin-1-yl)-2-methyl-1-oxo-2,7-naphthyridin-4-yl]-2,6-dimethoxyphenyl]methyl)piperidin-4-yl]methyl]-2,7-diazaspiro[3.5]nonan-2-yl)-1-oxo-3H-isoindol-2-yl]piperidine-2,6-dione]
[1]
  % Degradation: 0.438%
  % Mass Balance: 108.2%
  Area %: 93.734%
[2]
  % Degradation: 4.781%
  % Mass Balance: 106.5%
  Area %: 89.391%
[3]
  % Degradation: 8.992%
  % Mass Balance: 107.6%
  Area %: 85.180%
[4]
  % Degradation: 12.125%
  % Mass Balance: 106.9%
  Area %: 82.047%
[5]
  % Degradation: 25.210%
  % Mass Balance: 104.0%
  Area %: 68.962%
[6]
  % Degradation: 76.841%
  % Mass Balance: 98.0%
  Area %: 17.331%
Humidity, 92% RH, 1 d
  % Degradation: 1.245%
  % Mass Balance: 98.8%
  Area %: 92.927%
Humidity, 92% RH, 3 d
  % Degradation: 2.091%
  % Mass Balance: 99.5%
  Area %: 92.081%
Humidity, 92% RH, 7 d
  % Degradation: 3.282%
  % Mass Balance: 99.8%
  Area %: 90.890%
Oxidation, 3% H2O2 RT, 0 h
  % Degradation: 16.184%
  % Mass Balance: 106.8%
  Area %: 77.988%
Oxidation, 3% H2O2 RT, 8 h
  % Degradation: 60.417%
  % Mass Balance: 105.2%
  Area %: 33.755%
[7]
  % Degradation: 3.088%
  % Mass Balance: 101.0%
  Area %: 91.084%
[8]
  % Degradation: 3.256%
  % Mass Balance: 92.1%
  Area %: 90.916%
[9]
  % Degradation: 3.436%
  % Mass Balance: 105.7%
  Area %: 90.736%
[10]
  % Degradation: 0.656%
  % Mass Balance: 90.1%
  Area %: 93.516%
[11]
  % Degradation: 0.841%
  % Mass Balance: 93.7%
  Area %: 93.331%
[12]
  % Degradation: 1.299%
  % Mass Balance: 93.9%
  Area %: 92.873%
[13]
  % Degradation: 2.042%
  % Mass Balance: 93.7%
  Area %: 92.130%
[14]
  % Degradation: 1.674%
  % Mass Balance: 95.3%
  Area %: 92.498%
[15]
  % Degradation: 1.922%
  % Mass Balance: 103.1%
  Area %: 92.250%
[16]
  % Degradation: 2.133%
  % Mass Balance: 100.0%
  Area %: 92.039%
[17]
  % Degradation: 4.658%
  % Mass Balance: 100.8%
  Area %: 89.514%
[18]
  % Degradation: 1.534%
  % Mass Balance: 97.1%
  Area %: 92.638%
[19]
  % Degradation: 8.920%
  % Mass Balance: 102.6%
  Area %: 85.252%
[20]
  % Degradation: 15.170%
  % Mass Balance: 100.6%
  Area %: 79.002%
Thermal, 80° C., Solid, 1 d
  % Degradation: 0.724%
  % Mass Balance: 105.7%
  Area %: 93.448%
Thermal, 80° C., Solid, 3 d
  % Degradation: 0.978%
  % Mass Balance: 97.6%
  Area %: 93.194%
Thermal, 80° C., Solid, 7 d
  % Degradation: 11.980%
  % Mass Balance: 92.7%
  Area %: 82.192%
Thermal, 80° C., Solution, 1 d
  % Degradation: 0.119%
  % Mass Balance: 100.5%
  Area %: 94.053%
Thermal, 80° C., Solution, 7 d
  % Degradation: 62.235%
  % Mass Balance: 104.2%
  Area %: 31.937%
Unstressed
  Area %: 94.172%
